Experimental data as given in US20240011038A1, “CYTARABINE-MODIFIED miRNA FOR TREATING CANCER” (Curamir Therapeutics, Inc., priority 2022, published 2024).

How the values were obtained:
Format in all cases: cell-based
[1] = system: MV-4-11 acute myeloid leukemia cells; experiment: Cell viability of MV-4-11 AML cells exposed to modified miRNA mimics (WST-1); conditions: MV-4-11 cells, vehicle-free transfection, dosage of 5 nM, 6 days; FIG. 3
Protocol: (§1) MV-4-11 (American Type Culture Collection; “ATCC”) AML cells were maintained in Iscove's Modified Dulbecco's Medium (IMDM) (Thermo Fisher Scientific) supplemented with 10% fetal bovine serum (“FBS”; VWR). REH ALL cells (ATCC) were maintained in RPMI-1640 Medium (Thermo Fisher Scientific) supplemented with 10% FBS.
(§2) For transfection with a vehicle, twenty-four hours before transfection, cells were plated in 6 well plates at 1×10^5 cells per well. Cells were transfected with negative control miRNA (Thermo Fisher Scientific), 5-FU miR-15a, or various versions of the ara-C modified miR-15a mimic, using Lipofectamine™ 2000 (Thermo Fisher Scientific) as directed by the manufacturer. MV-4-11 cells were transfected with 15 nM of miRNA and REH cells were transfected with 25 nM of miRNA. Twenty-four hours post-transfection, cells were replated at 2000 cells per well in 96 well plates. […]
(§3) Cell numbers were measured on days 1, 3, and 6 post transfection for cells transfected with Lipofectamine 2000 and on day 6 post transfection for vehicle free transfection, using WST-1 dye (Roche). Briefly, cells were incubated with 10 μl of WST-1 dye per 100 μl of media for 1 hour (REH) or 2 hours (MV-4-11) at 37° C. and absorbance was read at 450 nm and 630 nm. The optical density (“OD”) was calculated by subtracting the absorbance at 630 nm from that at 450 nm. […]

[2] = system: REH acute lymphocytic leukemia cells; experiment: Cell viability of REH ALL cells exposed to modified miRNA mimics (WST-1); conditions: vehicle-free transfection, 10, 5, 0.5 nM miRNA, day 6, FIG. 5
Protocol: as §1, §2, §3

Wee1 gene mRNA = experiment: Inhibition of Wee1 expression by modified miR-15a (qRT-PCR); conditions: MV-4-11 cells, lipofection, 15 nM miRNA, 24 h post-transfection, normalized to GAPDH, vs negative control miRNA; FIG. 7
Protocol: Wee1 is an important cell cycle regulator and a potential target for AML therapy. Wee1 is a direct target of miR-15a with two miR-15a binding sites in the 3′ UTR of Wee1.
For transfection with a vehicle, twenty-four hours before transfection, cells were plated in 6 well plates at 1×10^5 cells per well. Cells were transfected with negative control miRNA (Thermo Fisher Scientific), 5-FU miR-15a, or various versions of the ara-C modified miR-15a mimic, using Lipofectamine™ 2000 (Thermo Fisher Scientific) as directed by the manufacturer. MV-4-11 cells were transfected with 15 nM of miRNA. Twenty-four hours post-transfection, RNA was isolated from cells using TRIzol™ (Thermo Fisher Scientific) reagent following the manufacturer's protocol. Wee1 expression was measured using qRT-PCR and normalized to GAPDH expression and calculated by the double delta threshold cycle (ΔΔCt) method.

## 5-FU miR-15a: miR-15a mimic with 5-fluorouracil in the guide strand, unmodified passenger strand (FIG. 1F; SEQ ID NO: 1/2) (guide UAGCAGCACAUAAUGGUUUGUG; sense CAGGCCAUAUUGUGCUGCCUCA; 5-fluorouracil in guide strand; misc_feature 1..22 miR-15a guide strand; modified_base 1 OTHER; uracil or 5-fluorouracil; misc_feature 4 cytidine or cytosine arabinoside; misc_feature 7 cytidine or cytosine arabinoside; modified_base 11 OTHER; modified_base 14 OTHER; modified_base 17..19 OTHER; modified_base 21 OTHER; misc_fea; misc_feature 1..22 miR-15a passenger strand; misc_feature 1 cytidine or cytosine arabinoside; misc_feature 5..6 cytidine or cytosine arabinoside; misc_feature 15 cytidine or cytosine arabinoside;)
[1]
  cell killing: killed all cells in 6 days
[2]
  inhibition of cell viability (percent cell viability): more effective than ara-C miR-15a
Wee1 gene mRNA
  Wee1 gene mRNA expression (relative quantity, qRT-PCR): able to significantly suppress Wee1 gene mRNA expression
